Values of other authors as cited in patent US6417349B1, “Water-soluble extract of asiaticoside and madecassoside from Centella asiatica and isolating method thereof” (priority 1997, dated 2002).

Conditions: prior-art components

Solubility in water, water-insoluble:
C[C@H]1[C@H](C)CC[C@]2(C(=O)O)CC[C@]3(C)C(=CC[C@@H]4[C@@]5(C)C[C@@H](O)[C@H](O)[C@@](C)(CO)[C@@H]5CC[C@]43C)[C@H]12 [asiatic acid], CC1CCC2(C(=O)O)CCC3(C)C(=CCC4C5(C)CC(O)C(O)C(C)(C)C5C(O)CC43C)C2C1C (stereo not drawn) [madasiatic acid], C[C@H]1[C@H](C)CC[C@]2(C(=O)O)CC[C@]3(C)C(=CC[C@@H]4[C@@]5(C)C[C@@H](O)[C@H](O)[C@@](C)(CO)[C@@H]5[C@H](O)C[C@]43C)[C@H]12 [madecassic acid]
